In a melting point compilation (Tetko et al.; mined from patent text by program, amines drawn as free bases though some values may be those of a salt) one finds melting point data, which are given here for 90 molecules.

Each structure is given as a SMILES string. Some results are limits rather than exact numbers.

For the molecule `CCOC(=O)c1cc([N+](=O)[O-])c(C)nc1C(=O)OCC`, the melting point lay within 90 to 91.5 °C. The value for `Cc1c(-c2ccc3oc(=O)n(C)c3c2)nc2c(O)cccn12` was greater than 280 °C; that for `O=S(=O)(c1ccc(F)cc1)N1CCCC1c1ccsc1` (racemic) was 135 °C. Next, `CC(C(=O)Cl)c1ccc2c(c1)CCc1ccccc1C2=O` (stereo not given): 142 °C.

In turn, `CC1C=CC(NC(=O)OC(C)(C)C)C([N+](=O)[O-])C1c1cc([N+](=O)[O-])ccc1Cl` (stereo not given) had a melting point of 195 to 203 °C. Next, `FCc1cccc(C#CCCc2ccc3ccccc3n2)n1`: 70.2 to 74.3 °C; `O=C(O)/C=C/c1ccc(OCc2ccccc2)cc1OCc1ccccc1`: 153 to 155 °C. `CNc1ccc2c(c1)nc(CCc1ccc(C#N)cc1)n2C`: the melting point lay within 155 to 158 °C. The value for `Cc1ccccc1C(=O)Nc1ccc(Cl)c(C(=O)OC(C)C)c1` was 137 to 138 °C; that for `CCNC(=O)c1c[nH]c2ncc(-c3nn(C)c4cc(Cl)ccc34)nc12` was 373 to 377 °C. Next, `CCCN(CCC)C(=O)Cn1c(-c2ccc(C)s2)nc2cccnc21`: 125 to 127 °C; `CN(C)C(=O)c1cc(N(C)C)cc(C(=O)N(C)C)n1`: 175 to 178 °C; `O=S(=O)(F)CCCCCCCc1ccc(O)cc1`: 47 to 51 °C.

`CN1CCCc2cc(OC(=O)Nc3ccc(Br)cc3)ccc21` returned a melting point of 155 °C. As to `CC(C)Cn1c(=O)n(C)c(=O)c2c(SC(C)C)c(C(=O)c3nc4ccccc4n3C)sc21`, the melting point lay within 166 to 169 °C. Next, `CCOC(=O)C(=O)Nc1ccc2c(c1)-c1c(c(C(=O)C(C#N)C(=O)Nc3ccccc3)nn1-c1ccccc1)CS2` (stereo not given): 273 to 277 °C. In the case of `Cn1c2ccc(Cl)cc2c2c(CC(=O)N3CCCC3)nn(-c3ccccc3)c(=O)c21`, the melting point lay in the range of 261 to 262 °C. The molecule `CCc1oc2ccccc2c1C(=O)NCc1ccc2c(Br)c(OC(Cc3ccccc3)C(=O)OC)ccc2c1` (stereo not given) yielded a melting point of 139 to 143 °C. Next, `COc1ccc(CCCCCCCSc2ccccc2)cc1`: 58 to 59 °C. The value for `Cc1nn(-c2nnc(S)n2N)c2c1CCCC2` was 201 to 202 °C. Next, `CCc1ccc2c(=O)c(-c3nnn[nH]3)cn(C)c2c1`: 180 to 181 °C; `CN(C)C(=O)N1CCN(Cc2ccc3c(c2)-c2[nH]nc(-c4ccsc4)c2C3)CC1`: 214 to 216 °C.

In turn, `C[C@@H](Cn1ncc2ccc3oc(C(N)=O)nc3c21)N=[N+]=[N-]` came in with a melting point of 162 to 164 °C.

`CC1(c2ccccc2)CC(=O)N(c2ccncc2)C1=O` (stereo not given) displayed a melting point of 90 to 92 °C. Next, `CSc1c(OCC(=O)O)ccc2c3ccccc3n(Cc3ccccc3)c12`: 188 to 189 °C; `Cc1nc(-n2ccn(Cc3ccc(F)cc3)c2=O)sc1C(=O)NCc1ccccc1`: 167 to 168 °C. The value for `CCCn1c(-n2nc(-c3c(-c4ccccc4)nn4ccccc34)ccc2=O)cc(=O)n(CC(=O)OC)c1=O` was 191 to 195 °C. The value for `Nc1cc(OCC2=CCCSC2)c(Cl)cc1F` was 73 to 74 °C; that for `ClCc1ccc(-c2ccccc2)nc1` was 95 to 96 °C; that for `COc1cc(C)c(C=C2COCC(=Cc3cc(C)c(OC)cc3C)C2=O)cc1C` was 182 to 184 °C. `CC(C)(OCc1nn(Cc2ccccc2)c2ccc([N+](=O)[O-])cc12)C(=O)O`: the melting point lay in the range of 129 to 131 °C. Next, `CCOC(=O)COc1ccc2c(c1)CCC2=O`: 59 to 61 °C; `O=C1N=c2ccccc2=C1C1CCNCC1`: 156 °C.

Consider `COC(=O)c1cc(C(C)(C)C#N)cc(C(C)(C)C#N)c1`, for which the melting point fell in the range of 83 to 85 °C. Next, `COc1cccc(C(CC(=O)O)SC)c1` (stereo not given): 61 to 63 °C. Next, `C=CC1(O)CCC2C3CCC4=CC(=O)CCC4C3CCC21CC` (stereo not given): 108 to 111 °C.

Turning to `O=C(O)c1c(-c2ccccc2)csc1N1C(=O)c2ccccc2C1=O`, the melting point fell in the range of 198 to 199 °C.

`Cn1cc(CS(C)(=O)=O)c(=O)c2cc(F)ccc21`: the melting point fell in the range of 200 to 205 °C. The value for `Cn1c([N+](=O)[O-])cnc1C(C)(C)O` was 102 to 107 °C; that for `COC(=O)c1ccc(Oc2cc3c(cc2Br)C(C)(C)CCC3(C)C)cc1` was 135 to 136 °C; that for `CC(C)C(=O)Nc1cccn1C` was 122 to 124 °C. Molecule `O=C(Nc1cn(C2CCCCO2)nc1C(=O)NCCCOc1ccccc1)c1ccccn1` (stereo not given) returned a melting point of 106 to 107 °C. Turning to `Cc1c(NC(=O)c2ccc(OCc3cccc(F)c3)cc2)ccc2cc(CN3CCCC3)cnc12`, the melting point lay in the range of 151 to 152 °C.

Molecule `COCNC(=O)OC(C(=O)OC)P(C)(C)=O` (stereo not given) showed a melting point of 101 °C. Next, `O=C(O)COCC(=O)OCC1CN(C(=O)Oc2ccccc2)CCC1c1ccc(F)cc1` (stereo not given): 144 to 146 °C; `CS(=O)(=O)c1c[nH]nc1C(CCCC(=O)C1CCCCC1)CO[N+](=O)[O-]` (stereo not given): 111 to 113 °C.

Turning to `NS(=O)(=O)CCC(O)COCc1ccccc1` (stereo not given), the melting point lay in the range of 94 to 98 °C. On to `O=C(O)c1ccc(Cc2ccc(-c3ccccc3-c3nnn[nH]3)cc2)c2[nH]c(OCC(F)(F)F)nc12`, for which the melting point lay in the range of 204 to 206 °C. The value for `CCN1C(=O)C(C)(C)CCc2c1ccc(Nc1ncc(Cl)c(Nc3ccc(N4CCOCC4)cc3OC)n1)c2OC` was 181 to 183 °C. The value for `Nc1ccc(C(=O)N2Cc3ccccc3Cc3cc(Cl)ccc32)cc1` was 211 to 214 °C; that for `Brc1ccc(N2CCNCC2)nc1` was 70.6 °C; that for `COc1ccc(-c2c(Cl)c(CN3C(=O)CCC3=O)nc3sc4c(c23)CCS(=O)(=O)C4)cc1` was 300 °C. Next, `Cc1ncncc1NC(=O)Nc1ccc(-n2nc(C(F)(F)F)cc2C2CC2)c(F)c1`: 198 to 202 °C; `CCOC(=O)C(CC)Sc1nc2c(c(=O)[nH]c(=O)n2C)n1Cc1cccc(N)c1` (stereo not given): 107 °C.

In the case of `COc1nc(C)nc(NC(=O)NS(=O)(=O)c2ccccc2CCC(F)(F)F)n1`, the melting point was in the range of 157 to 158 °C.

The molecule `CC1CC(=O)NN=C1c1ccc(NCC(C)(C)[N+](=O)[O-])cc1` (stereo not given) returned a melting point of 187 to 189 °C. Next, `CCOc1ccc(C2=NN(CCCCBr)C(=O)[C@H]3CC=CC[C@@H]23)cc1OCC` (relative stereo): 73 to 75 °C; `Cc1c(C)c2c(c(C)c1NC(=O)NCC(C)(C)CO)C(c1ccc(C(C)C)cc1)CO2` (stereo not given): 117 to 118 °C. Next, `CCOC(=O)c1sc(N)nc1-c1cccc(C)c1`: 183 to 184 °C; `c1ccc(Nc2nsc3ccccc23)nc1`: 247 to 249 °C; `CC(C)(C)NC(=O)C(C#N)C(=O)C1CC1` (stereo not given): 97 to 98.5 °C. Molecule `Fc1ccc2c(c1)nc(Cl)c1nncn12` registered a melting point of 305 to 308 °C. The value for `COC1CCCn2c1nc(C)c(CCN1CCC(c3noc4cc(F)ccc34)CC1)c2=O` (stereo not given) was 131 °C; that for `Cc1sc2c(c1C)C(c1ccc(Cl)cc1)=NC(CC(=O)O)c1nnc(C)n1-2` (stereo not given) was 166 to 177 °C; that for `CC(CCl)OC(=O)Nc1ccc([N+](=O)[O-])cc1Cl` (stereo not given) was 101 to 103 °C.

As to `CCCCCCCNC(=O)Nc1ccc(CCc2cc(C(C)(C)C)c(O)c(C(C)(C)C)c2)cc1`, the melting point lay within 151 to 152 °C. `O=S(=O)(NCC(O)(Cn1cncn1)c1ccc(Cl)cc1Cl)c1cc(Cl)ccc1Cl` (stereo not given) yielded a melting point of 173 to 174 °C. The value for `O=C(CN1CCN(c2ccc(C(=O)O)cc2)CC1)Nc1ccc(Cl)cc1` was 263 to 265 °C; that for `CCOC(=O)/C=C/c1cccc(C(F)(F)F)c1` was 40 to 41 °C. Take `CC(=O)NCC1CN(c2ccc(N3CCN(c4nnc(C(F)(F)F)s4)CC3)c(F)c2)C(=O)O1` (stereo not given): the melting point is 255 to 257 °C. The value for `CC(Oc1ccc(OC(F)(F)F)cc1)c1ccnc2ncnn12` (stereo not given) was 91 to 93 °C; that for `O=C1c2c(Cl)cccc2-c2n[nH]c3cccc1c23` was 310 °C.

`Cc1ccc(-c2c(Cl)nc(-c3ccccc3)nc2Cl)cc1` yielded a melting point of 165 to 166 °C. The value for `CCOC(=O)C1=NN(c2cccc3ccccc23)C(C(=O)OCC)=NN1c1ccccc1` was 124 to 125 °C.

Molecule `CCCc1nc2c(N)nc3ccccc3c2n1OCC` displayed a melting point of 198 to 199 °C. `Cc1nnc(-c2nsc3ccc([N+](=O)[O-])cc23)s1` showed a melting point of 239 to 240 °C. The value for `O=C(NO)[C@H](CNS(=O)(=O)c1ccc(OCc2c(C(F)(F)F)nn3ccccc23)cc1)N1CCN(Cc2ccccc2)CC1` was 138 °C; that for `CCCOc1ccc(-n2c(C(F)(F)F)nn(C)c2=S)cc1` was 68 to 70 °C. Next, `NC(=O)c1ccc(N2CCN(c3ccncc3)CC2)cc1`: 327 to 330 °C. The molecule `CNCC(=O)N(C)Cc1ccc(CCn2cnc3cc(-c4ccc(Cl)cc4)sc3c2=O)cc1` yielded a melting point of 166 to 169 °C. The value for `O=C(c1cccnc1)c1cccs1` was 90 to 91.5 °C. Next, `O=C1O[C@@H](CO)CN1c1ccc(N2C[C@@H]3C[C@H]2CS3)c(F)c1`: 156 to 157 °C; `CCOC(=O)C1CCc2ccc(OC)cc2C1` (stereo not given): 125 to 127 °C. Next, `Fc1c(Cl)cc(C(/C=C/c2ccc3[nH]ccc3c2)C(F)(F)F)cc1Cl` (stereo not given): 133 to 139 °C.

`Cc1nc(-n2cnn(CC3CC3)c2=O)sc1C(=O)NCc1cccnc1` returned a melting point of 116 to 117 °C. The value for `CCCN(Cc1ccc(-c2ccccc2-c2nnnn2C(c2ccccc2)(c2ccccc2)c2ccccc2)cc1)c1ncccc1C(=O)OCC` was 129 to 131 °C. For `CN1CCC2(CC1)c1ccccc1Sc1c(O)cccc12`, the melting point was in the range of 180 to 182 °C. For `CCOC(=O)c1cc2c(C)c(C(=O)OCC)sc2[nH]1`, the melting point was 139 °C. The value for `COc1ccc(C2CNC(=O)S2)cc1OC` (stereo not given) was 167 to 169 °C; that for `O=[N+]([O-])c1cnc(Sc2nc(-c3ccc(Cl)cc3)n[nH]2)s1` was 181 to 184 °C.

A word on the melting point: it is the temperature of the solid-liquid transition.
